From ChEMBL document CHEMBL4177570, “Pyrazole C-region analogues of 2-(3-fluoro-4-methylsulfonylaminophenyl)propanamides as potent TRPV1 antagonists” (Bioorg Med Chem Lett, 2017)

Legend:
[1] = molecular target: T1, Transient receptor potential cation channel subfamily V member 1 (Homo sapiens, UniProt Q8NER1); assay: Antagonist activity at human TRPV1 expressed in CHO cells assessed as inhibition of capsaicin-induced intracellular calcium level preincubated for 6 mins followed by capsaicin addition by Fluo-4 dye based FLIPR assay; format: cell-based
[2] = system: Mus musculus; assay: Inhibition of capsaicin-induced hypothermia in NMRI mouse at 3 mg/kg, po pretreated for 15 mins followed by capsaicin treatment measured up to 120 mins relative to control; format: functional
[3] = molecular target: T1, Transient receptor potential cation channel subfamily V member 1; assay: Antagonist activity at elevated temperature activated human TRPV1 expressed in CHO cells assessed as inhibition of intracellular calcium level preincubated for 5 mins followed by receptor activation by increasing temperature to 45 degC by Fluo-4 dye based FLIPR assay; format: cell-based
[4] = molecular target: T1, Transient receptor potential cation channel subfamily V member 1; assay: Antagonist activity at human TRPV1 expressed in CHO cells assessed as inhibition of NADA-induced intracellular calcium level preincubated with cells followed by NADA addition by Fluo-4 dye based FLIPR assay
[5] = molecular target: T1, Transient receptor potential cation channel subfamily V member 1; assay: Antagonist activity at pH 6 to 6.3 activated human TRPV1 expressed in CHO cells assessed as inhibition of intracellular calcium level preincubated with cells followed by receptor activation by Fluo-4 dye based FLIPR assay; format: cell-based

T1 sequence (Q8NER1 whole entry): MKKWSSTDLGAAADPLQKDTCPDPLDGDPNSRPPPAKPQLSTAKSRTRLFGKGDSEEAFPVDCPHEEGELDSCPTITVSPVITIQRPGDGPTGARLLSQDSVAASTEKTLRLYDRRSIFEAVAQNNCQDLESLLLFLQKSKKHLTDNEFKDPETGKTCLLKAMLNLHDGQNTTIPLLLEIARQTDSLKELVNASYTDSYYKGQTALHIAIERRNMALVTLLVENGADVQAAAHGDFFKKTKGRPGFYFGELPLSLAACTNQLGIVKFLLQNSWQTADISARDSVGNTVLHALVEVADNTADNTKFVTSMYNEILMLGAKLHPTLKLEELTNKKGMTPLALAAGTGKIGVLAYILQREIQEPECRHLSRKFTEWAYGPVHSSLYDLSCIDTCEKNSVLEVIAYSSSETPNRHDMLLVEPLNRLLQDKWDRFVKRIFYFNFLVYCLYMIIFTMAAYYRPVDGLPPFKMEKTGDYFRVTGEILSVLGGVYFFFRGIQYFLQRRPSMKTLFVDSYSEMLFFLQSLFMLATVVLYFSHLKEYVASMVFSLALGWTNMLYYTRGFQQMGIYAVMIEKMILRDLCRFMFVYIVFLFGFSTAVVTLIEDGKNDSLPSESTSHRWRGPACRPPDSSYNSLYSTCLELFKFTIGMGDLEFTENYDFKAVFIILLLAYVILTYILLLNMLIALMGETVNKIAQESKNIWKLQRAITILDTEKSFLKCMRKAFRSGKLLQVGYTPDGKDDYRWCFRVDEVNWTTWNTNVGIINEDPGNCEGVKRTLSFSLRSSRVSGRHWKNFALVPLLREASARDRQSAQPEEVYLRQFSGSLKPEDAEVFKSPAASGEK

Structure (SMILES) | Ki ([1]; read-out: Ki) | Ki ([1]; cho) | also measured
CCCCCCn1nc(C(C)(C)C)cc1CNC(=O)C(C)c1ccc(NS(C)(=O)=O)c(F)c1 (stereo not drawn) | 27.7 nM | – | –
CCC/C=C/n1nc(C(C)(C)C)cc1CNC(=O)C(C)c1ccc(NS(C)(=O)=O)c(F)c1 (stereo not drawn) | 5.1 nM | – | –
CC(C(=O)NCc1cc(C(C)(C)C)nn1C)c1ccc(NS(C)(=O)=O)c(F)c1 (stereo not drawn) | – | Not Active | –
C[C@H](C(=O)NCc1cc(C(F)(F)F)nn1-c1cccc(Cl)c1)c1ccc(NS(C)(=O)=O)c(F)c1 | – | – | inhibition in vivo at 3 mg/kg [2]: 85%
CCCCCn1nc(C(C)(C)C)cc1CNC(=O)C(C)c1ccc(NS(C)(=O)=O)c(F)c1 (stereo not drawn) | 50.2 nM | – | –
Cc1ccc(/C=C/c2ccc(-n3nc(C(C)(C)C)cc3CNC(=O)C(C)c3ccc(NS(C)(=O)=O)c(F)c3)cc2)cc1 (stereo not drawn) | 819 nM | – | –
CC(C)(C)c1cc(CNC(=O)C(c2ccc(NS(C)(=O)=O)c(F)c2)C2CCCCC2)n(-c2cccc(Cl)c2)n1 (stereo not drawn) | – | Not Active | –
Cc1ccc(C(C(=O)NCc2cc(C(C)(C)C)nn2-c2cccc(Cl)c2)c2ccc(NS(C)(=O)=O)c(F)c2)cc1 (stereo not drawn) | – | Not Active | –
C[C@H](C(=O)NCc1cc(C(C)(C)C)nn1-c1cccc(Cl)c1)c1ccc(NS(C)(=O)=O)c(F)c1 | – | – | IC50 [3]: Not Active; Ki [4]: 0.04 nM; inhibition in vivo at 3 mg/kg [2]: 95%; IC50 [5]: Not Active
C[C@H](C(=O)NCc1cc(C(C)(C)C)nn1-c1ccc(F)c(Cl)c1)c1ccc(NS(C)(=O)=O)c(F)c1 | 0.1 nM | – | –
CC(C(=O)NCc1cc(C(C)(C)C)n[nH]1)c1ccc(NS(C)(=O)=O)c(F)c1 (stereo not drawn) | – | Not Active | –
CC(C(=O)NCc1cc(C(F)(F)F)nn1-c1ccc(Cl)cc1)c1ccc(NS(C)(=O)=O)c(F)c1 (stereo not drawn) | 0.4 nM | – | –
CC(C(=O)NCc1cc(C(C)(C)C)nn1-c1ccccc1)c1ccc(NS(C)(=O)=O)c(F)c1 (stereo not drawn) | 8 nM | – | –
COc1ccc(-n2nc(C(C)(C)C)cc2CNC(=O)C(C)c2ccc(NS(C)(=O)=O)c(F)c2)cc1 (stereo not drawn) | – | Not Active | –
CC(C)(C)c1cc(CNC(=O)C(c2cccc(F)c2)c2ccc(NS(C)(=O)=O)c(F)c2)n(-c2cccc(Cl)c2)n1 (stereo not drawn) | – | Not Active | –
